Source: patent US9840547B2, “Hepatic insulin sensitizing substance and test meal for insulin sensitization” (SciMar Ltd., priority 2013, dated 2017)

Tests used:
[1] = literature; cited from earlier work
[2] = Time course of hypoglycemic action in humans; format: in vivo; details: after an intravenous injection
[3] = test system: cultured L6 skeletal muscle cells; assay: Plasma HISS activity on glucose uptake in cultured L6 skeletal muscle cells (2-NBDG bioassay); format: cell-based; details: plasma insulin concentration versus RFU, linear regression
Description: Individual plasma samples were tested in 1-3 wells/sample with 2 measurements/well.

[4] = Time course of hypoglycemic action in rats; format: in vivo; details: after an intravenous injection

| Substance | hypoglycemic action [1] | time at which action returns to baseline [2] [min] | stimulation of glucose uptake response in L6 cells [3] | time at which action returns to baseline [4] [min] |
| --- | --- | --- | --- | --- |
| bone morphogenetic protein 9 | no rapid hypoglycemic effect |  |  |  |
| insulin |  | 90 | not stimulated by insulin | 35 |
